PubChem BioAssay (NCI)
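Cells were grown in 96-well plates and exposed to each compound for 48 hours at five concentrations; endpoints were interpolated linearly between bracketing concentrations, or set to the highest concentration if not reached. GI50: concentration for 50% inhibition of growth. TGI is the concentration that stops growth completely.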

Columns and labels:
Test in all cases: NCI tumour cell line growth inhibition, 48 h
[1] = tested on: HOP-92 NSCLC
[2] = tested on: RPMI-8226 leukemia
[3] = tested on: ACHN renal
[4] = tested on: COLO 205 colon
[5] = tested on: TK-10 renal
[6] = tested on: SK-MEL-5 melanoma
[7] = tested on: OVCAR-3 ovarian
[8] = tested on: IGROV1 ovarian
[9] = tested on: MALME-3M melanoma
[10] = tested on: HCT-116 colon

CC1=C(C(=O)Nc2ccc(Cl)c(Cl)c2)C(c2ccccc2O)NC(=O)N1 (stereo not drawn)
GI50 [1]: > 50 µM
TGI [1]: > 50 µM
GI50 [2]: 34.8 µM
TGI [2]: > 50 µM
GI50 [3]: > 50 µM
TGI [3]: > 50 µM
GI50 [4]: 28.3 µM
TGI [4]: > 50 µM
GI50 [5]: 22.1 µM
TGI [5]: > 50 µM
GI50 [6]: 22.5 µM
TGI [6]: > 50 µM
GI50 [7]: 19.1 µM
TGI [7]: > 50 µM
GI50 [8]: > 50 µM
TGI [8]: > 50 µM

COc1ccc(OC)c2c3c(ccc12)C(c1ccccc1)OC3=O (stereo not drawn)
TGI [2]: > 100 µM
TGI [3]: > 100 µM
TGI [9]: > 100 µM
TGI [4]: > 100 µM
TGI [10]: > 100 µM
TGI [5]: > 100 µM
TGI [6]: > 100 µM
TGI [7]: 79.9 µM
TGI [8]: > 100 µM

COc1cc([N+](=O)[O-])c2ncccc2c1[N+](=O)[O-]
GI50 [2]: 6.15 µM
TGI [2]: 26.5 µM
GI50 [3]: 4.75 µM
TGI [3]: 16.5 µM
GI50 [4]: 10.1 µM
TGI [4]: 22.9 µM
GI50 [10]: 3.47 µM
TGI [10]: 11.9 µM
GI50 [5]: 7.04 µM
TGI [5]: 19.6 µM
GI50 [6]: 12.6 µM
TGI [6]: 25.3 µM
GI50 [7]: 2.68 µM
TGI [7]: 6.72 µM

COc1ccc2nc3ccccc3c(NCCCCN(C)CCCl)c2c1
TGI [2]: 0.544 µM
TGI [3]: 0.132 µM
TGI [9]: 1.06 µM
TGI [4]: 0.0789 µM
TGI [10]: 0.303 µM
TGI [5]: > 31.9 µM
TGI [6]: 0.442 µM
TGI [7]: 0.712 µM
TGI [8]: 0.877 µM

N=C1C=C(N)C(=O)c2[nH]c(=O)ccc21
TGI [1]: 3.58 µM
TGI [3]: 3.1 µM
TGI [9]: 6.19 µM
TGI [4]: 3.14 µM
TGI [10]: 2.48 µM
TGI [5]: 24.9 µM
TGI [6]: 3.22 µM
TGI [7]: 2.96 µM
TGI [8]: 3.39 µM

CC1CC2(C)CC(=O)C1C1C(=O)N(CCN3CCCCC3)C(=O)C12 (stereo not drawn)
GI50 [1]: > 100 µM
TGI [1]: > 100 µM
GI50 [3]: > 100 µM
TGI [3]: > 100 µM
GI50 [9]: > 100 µM
TGI [9]: > 100 µM
GI50 [4]: > 100 µM
TGI [4]: > 100 µM
GI50 [10]: > 100 µM
TGI [10]: > 100 µM
GI50 [5]: > 100 µM
TGI [5]: > 100 µM
GI50 [6]: > 100 µM
TGI [6]: > 100 µM
GI50 [8]: > 100 µM
TGI [8]: > 100 µM

C[C@@H]1C[C@]2(C[C@@H](C)C3[C@@H](CC4(C)[C@@H]5CCC6C(C)(C)OC(=O)C=C[C@]67C[C@@]5(CC[C@]34C)OO7)O2)OC1=O (stereo partly drawn)
TGI [2]: > 100 µM
TGI [3]: > 100 µM
TGI [9]: > 100 µM
TGI [4]: > 100 µM
TGI [10]: > 100 µM
TGI [5]: > 100 µM
TGI [6]: > 100 µM
TGI [7]: 66.3 µM
TGI [8]: > 100 µM

C/C=C1\C(=O)OC2CCN3CCC(COC(=O)C(C)(O)C(C)C1O)C23 (stereo not drawn)
TGI [1]: > 100 µM
TGI [3]: > 100 µM
TGI [9]: > 100 µM
TGI [4]: > 100 µM
TGI [10]: > 100 µM
TGI [5]: > 100 µM
TGI [6]: > 100 µM
TGI [8]: > 100 µM

S=c1nc(-c2ccnc(-c3nc(=S)[nH][nH]3)c2)[nH][nH]1
TGI [2]: > 100 µM
TGI [3]: > 100 µM
TGI [9]: > 100 µM
TGI [4]: > 100 µM
TGI [10]: > 100 µM
TGI [5]: > 100 µM
TGI [6]: > 100 µM
TGI [7]: > 100 µM
TGI [8]: > 100 µM

CCOC(=O)C(NC(=O)c1[nH]cnc1/N=N/N(C)C)C(C)C (stereo not drawn)
TGI [2]: > 100 µM
TGI [3]: > 100 µM
TGI [9]: > 100 µM
TGI [4]: > 100 µM
TGI [10]: > 100 µM
TGI [5]: > 100 µM
TGI [6]: > 100 µM
TGI [7]: > 100 µM
TGI [8]: > 100 µM

CCOC(=O)[C@H]1Nc2ccccc2C2c3ccccc3CC21 (stereo partly drawn)
TGI [2]: > 100 µM
TGI [3]: > 100 µM
TGI [9]: > 100 µM
TGI [4]: > 100 µM
TGI [10]: > 100 µM
TGI [5]: > 100 µM
TGI [6]: 54.6 µM
TGI [7]: > 100 µM
TGI [8]: > 100 µM

CCCCCCCCCCCCOP(N)(=O)OCCCCCCCCCCCC
TGI [2]: > 100 µM
TGI [3]: > 100 µM
TGI [9]: > 100 µM
TGI [4]: > 100 µM
TGI [10]: > 100 µM
TGI [5]: > 100 µM
TGI [7]: > 100 µM
TGI [8]: > 100 µM

CN1CCN(c2nc(-c3ccncc3)nc3sc4c(c23)CCCCCC4)CC1
GI50 [1]: 0.654 µM
TGI [1]: 5.32 µM
GI50 [2]: 8.39 µM
TGI [2]: 26.9 µM
GI50 [3]: 7.99 µM
TGI [3]: 20.5 µM
GI50 [4]: 4.94 µM
TGI [4]: 17.2 µM
GI50 [10]: 5.13 µM
TGI [10]: 17.7 µM
GI50 [5]: 6.71 µM
TGI [5]: 20.5 µM
GI50 [6]: 7.94 µM
TGI [6]: 20.5 µM
GI50 [7]: 13.5 µM
TGI [7]: 27 µM
GI50 [8]: 8.16 µM
TGI [8]: 22 µM

O=C(Cc1ccccc1)NN1C(=O)/C(=C\c2ccc(O)cc2)SC1=Nc1ccccc1
TGI [1]: > 100 µM
TGI [2]: > 100 µM
TGI [3]: > 100 µM
TGI [4]: > 100 µM
TGI [10]: > 100 µM
TGI [5]: > 100 µM
TGI [6]: > 100 µM
TGI [7]: > 100 µM
TGI [8]: > 100 µM

CCC1CNC(=O)CC1CC(=O)OC (stereo not drawn)
TGI [1]: > 100 µM
TGI [3]: > 100 µM
TGI [9]: > 100 µM
TGI [10]: > 100 µM
TGI [5]: > 100 µM
TGI [6]: > 100 µM
TGI [7]: > 100 µM
TGI [8]: > 100 µM

O=C(Cc1csc2nc(-c3ccc(Br)cc3)cn12)N/N=C/c1ccc(O)cc1
GI50 [1]: 18.9 µM
TGI [1]: 68.9 µM
GI50 [2]: 4.29 µM
TGI [2]: 40.2 µM
GI50 [3]: 14.7 µM
TGI [3]: 51 µM
GI50 [4]: 43.3 µM
TGI [4]: > 100 µM
GI50 [10]: 10.5 µM
TGI [10]: 24.2 µM
GI50 [5]: 9.79 µM
TGI [5]: 33.4 µM
GI50 [6]: 7.14 µM
TGI [6]: 22.2 µM
GI50 [7]: 24.2 µM
TGI [7]: 49.4 µM
GI50 [8]: 10.6 µM
TGI [8]: 39.7 µM
